Results on 3 compounds are retold here after US7566789B2, “Benzimidazole derivatives” (Merck Patent GmbH, priority 2002, dated 2009).

One data set has as its target factor Xa (Homo sapiens, UniProt P00742). Briefly: Inhibition of factor Xa (FXa-IC50). In kind it is biochemical. The source says:
The inhibition of factor Xa by the compounds according to the invention and the measurement of the anticoagulant and antithrombotic activity can be determined by conventional in-vitro or in-vivo methods. A suitable method is described, for example, by J. Hauptmann et al. in Thrombosis and Haemostasis 1990, 63, 220-223.
The inhibition of factor Xa can be measured, for example by the method of T. Hara et al. in Thromb. Haemostas. 1994, 71, 314-319.

The target in another data set is TF/FVIIa (Homo sapiens, UniProt P08709). The data set can be described thus: Inhibition of TF/factor VIIa (TF/FVIIa-IC50). In kind it is biochemical. The source says: The inhibition of factor VIIa by the compounds according to the invention and the measurement of the anticoagulant and antithrombotic activity can be determined by conventional in-vitro or in-vivo methods. A conventional method for the measurement of the inhibition of factor VIIa is described, for example, by H. F. Ronning et al. in Thrombosis Research 1996, 84, 73-81.
TF/FVIIa, sequence (P08709 213-466 limits assumed): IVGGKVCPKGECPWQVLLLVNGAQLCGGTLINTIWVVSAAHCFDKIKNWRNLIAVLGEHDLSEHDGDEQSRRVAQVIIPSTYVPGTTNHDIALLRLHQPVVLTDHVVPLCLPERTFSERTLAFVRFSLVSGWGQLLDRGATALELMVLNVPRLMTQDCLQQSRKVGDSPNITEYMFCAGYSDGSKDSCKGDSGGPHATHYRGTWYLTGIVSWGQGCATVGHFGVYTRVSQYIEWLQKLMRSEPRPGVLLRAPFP
TF/FVIIa, sequence (P08709 61-212 limits assumed): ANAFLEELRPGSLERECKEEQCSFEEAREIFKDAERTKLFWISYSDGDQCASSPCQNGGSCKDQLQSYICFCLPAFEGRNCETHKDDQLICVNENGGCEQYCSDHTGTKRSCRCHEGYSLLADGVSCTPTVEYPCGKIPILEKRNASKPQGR
TF/FVIIa, sequence (P13726 33-295 partner): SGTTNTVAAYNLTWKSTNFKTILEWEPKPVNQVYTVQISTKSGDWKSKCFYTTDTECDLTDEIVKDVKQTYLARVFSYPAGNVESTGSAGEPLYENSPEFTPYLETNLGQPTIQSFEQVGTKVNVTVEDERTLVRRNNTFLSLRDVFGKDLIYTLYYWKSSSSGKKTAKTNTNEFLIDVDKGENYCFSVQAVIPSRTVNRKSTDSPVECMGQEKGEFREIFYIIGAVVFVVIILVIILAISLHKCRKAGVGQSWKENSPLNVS

factor Xa, sequence (P00742 235-488 limits assumed): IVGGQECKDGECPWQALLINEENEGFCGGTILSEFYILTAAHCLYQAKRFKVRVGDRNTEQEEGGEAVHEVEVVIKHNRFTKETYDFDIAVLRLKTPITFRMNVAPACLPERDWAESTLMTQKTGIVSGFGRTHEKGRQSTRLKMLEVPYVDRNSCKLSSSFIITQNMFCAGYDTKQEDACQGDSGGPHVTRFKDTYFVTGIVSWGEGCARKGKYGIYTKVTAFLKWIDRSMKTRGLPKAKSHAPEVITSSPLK
factor Xa, sequence (P00742 41-179 limits assumed): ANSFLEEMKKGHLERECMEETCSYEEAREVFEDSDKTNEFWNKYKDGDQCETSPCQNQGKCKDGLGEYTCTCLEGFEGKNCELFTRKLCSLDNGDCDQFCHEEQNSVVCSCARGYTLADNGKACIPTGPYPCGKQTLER

On to `O=C(Cc1ccc2[nH]c(-c3ccc(Cl)s3)nc2c1)Nc1ccc(N2CCOCC2=O)cc1` [AA, 2-[2-(5-chlorothiophen-2-yl)-1H-benzimidazol-5-yl]-N-[4-(3-oxomorpholin-4-yl)phenyl]acetamide], for which the melting point is 200 °C (dec.). Further, on factor Xa, the IC50 amounted to 230 nM. Further, half-maximal inhibition on TF/FVIIa (IC50) required 190 nM.

Regarding `Cc1cc(NC(=O)Cc2ccc3[nH]c(-c4ccc(Cl)s4)nc3c2)ccc1N1CCOCC1=O` [AB, 2-[2-(5-chlorothiophen-2-yl)-1H-benzimidazol-5-yl]-N-[3-methyl-4-(3-oxomorpholin-4-yl)phenyl]acetamide], the half-maximal inhibitory concentration (IC50) at factor Xa amounted to 120 nM; at TF/FVIIa, 130 nM.

For the compound `O=C(Cc1ccc2[nH]c(-c3ccc(Cl)s3)nc2c1)Nc1ccc(-n2ccccc2=O)cc1` [AC, 2-[2-(5-chlorothiophen-2-yl)-1H-benzimidazol-5-yl]-N-[4-(2-oxopyridin-1-yl)phenyl]acetamide], the IC50 worked out at 180 nM on factor Xa and 130 nM against TF/FVIIa.

For orientation: melting point means the temperature of the solid-liquid transition. One may read the IC50 as the concentration at which inhibition is half-maximal. Higher therefore signals lower potency.
